Test [1] concerns the target T1, Nociceptin receptor (Homo sapiens, UniProt P41146). The experiment in a line: Binding affinity to human ORL1 receptor expressed in African green monkey COS7 cells assessed per mg protein after 90 mins by Scatchard plot analysis. The class given is cell-based, COS-7.
Test [2] deals with T1, Nociceptin receptor. Nature of the test: Displacement of [3H]isoVa-RYYRIK-NH2 from human ORL1 receptor expressed in African green monkey COS7 cells after 90 mins by topcount analysis. The class given is cell-based, COS-7. For orientation: In a radioligand displacement assay an active substance lowers the binding of a labelled ligand.
In test [3] the target is T1, Nociceptin receptor. Nature of the test: Displacement of [3H]]nociceptin from human ORL1 receptor high affinity binding site expressed in African green monkey COS7 cells after 90 mins by topcount analysis.
Test [4] deals with T1, Nociceptin receptor. Nature of the test: Partial agonist activity at human ORL1 receptor expressed in African green monkey COS7 cells after 90 mins by topcount analysis. Format: cell-based. The following applies: COS-7.
In test [5] the target is T1, Nociceptin receptor. The experiment in a line: Displacement of [3H]]nociceptin from human ORL1 receptor low affinity binding site expressed in African green monkey COS7 cells after 90 mins by topcount analysis.
The target in test [6] is T1, Nociceptin receptor. Nature of the test: Displacement of [3H]]nociceptin from human ORL1 receptor expressed in African green monkey COS7 cells after 90 mins by topcount analysis. The class given is cell-based, COS-7.

Drawing on ChEMBL document CHEMBL3351468, “Tritium-labelled isovaleryl-RYYRIK-NH2 as potential antagonist probe for ORL1 nociceptin receptor” (Bioorg Med Chem, 2014), this text covers Kd, IC50 and Activity for five compounds.

T1 sequence (P41146 whole entry): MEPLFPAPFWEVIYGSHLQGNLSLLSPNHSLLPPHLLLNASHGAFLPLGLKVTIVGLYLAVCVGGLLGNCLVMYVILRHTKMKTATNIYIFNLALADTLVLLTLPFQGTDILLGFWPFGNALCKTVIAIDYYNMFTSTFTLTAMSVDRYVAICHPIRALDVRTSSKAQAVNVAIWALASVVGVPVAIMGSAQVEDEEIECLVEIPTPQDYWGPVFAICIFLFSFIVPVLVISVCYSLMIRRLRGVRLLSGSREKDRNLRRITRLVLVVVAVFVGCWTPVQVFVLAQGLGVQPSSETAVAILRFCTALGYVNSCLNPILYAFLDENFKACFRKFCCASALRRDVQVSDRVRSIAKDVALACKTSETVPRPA

By Kd is commonly meant a measure of binding affinity in units of concentration. `[3H]C(C(=O)N[C@@H](CCCNC(=N)N)C(=O)N[C@@H](Cc1ccc(O)cc1)C(=O)N[C@@H](Cc1ccc(O)cc1)C(=O)N[C@@H](CCCNC(=N)N)C(=O)N[C@H](C(=O)N[C@@H](CCCCN)C(N)=O)[C@@H](C)CC)C([3H])(C)C` (stereo partly specified) yielded a Kd on Nociceptin receptor [1] of 1.21 nM.

Broadly, the IC50 is the concentration needed to halve the response being measured. With `CC[C@H](C)[C@H](NC(=O)[C@H](CCCNC(=N)N)NC(=O)[C@H](Cc1ccc(O)cc1)NC(=O)[C@H](Cc1ccc(O)cc1)NC(=O)[C@H](CCCNC(=N)N)NC(=O)CC(C)C)C(=O)N[C@@H](CCCCN)C(N)=O`, the IC50 at Nociceptin receptor [2] was determined as 2.15 nM; on Nociceptin receptor [3], 0.033 nM; on Nociceptin receptor [5], 8.51 nM. Also, at Nociceptin receptor [4], the Activity stood at 0%.

Consider `CC[C@H](C)[C@H](NC(=O)[C@H](CCCNC(=N)N)NC(=O)[C@H](Cc1ccc(O)cc1)NC(=O)[C@H](Cc1ccc(O)cc1)NC(=O)[C@H](CCCNC(=N)N)NC(=O)C(C)C)C(=O)N[C@@H](CCCCN)C(N)=O`, for which the IC50 on Nociceptin receptor [3] was 0.059 nM; at Nociceptin receptor [5], 1.67 nM. The Activity on Nociceptin receptor [4] stood at 14%.

On Nociceptin receptor [4], `CC[C@H](C)[C@H](NC(=O)[C@H](CCCN=C(N)N)NC(=O)[C@H](Cc1ccc(O)cc1)NC(=O)[C@H](Cc1ccc(O)cc1)NC(=O)[C@H](CCCN=C(N)N)NC(C)=O)C(=O)N[C@@H](CCCCN)C(N)=O` gave an Activity of 60%.

On Nociceptin receptor [4], `CCC(=O)N[C@@H](CCCNC(=N)N)C(=O)N[C@@H](Cc1ccc(O)cc1)C(=O)N[C@@H](Cc1ccc(O)cc1)C(=O)N[C@@H](CCCNC(=N)N)C(=O)N[C@H](C(=O)N[C@@H](CCCCN)C(N)=O)[C@@H](C)CC` registered an Activity of 46%. Also, the 50% inhibitory concentration (IC50) on Nociceptin receptor [6] stood at 1.39 nM.
